# Test results published in patent publication US5180716A, “Cyclodextrin complexes for neuraxial administration of drugs” (The Regents of the University of California, priority 1990, dated 1993).
# What was measured:
# [1] = rat, in vivo
# [2] = guinea pig, in vivo
# [3] = dog, in vivo
# [4] = oral administration; cited from earlier work
# [5] = tested on: calcitonin gene-related peptide (CGRP); conditions: rat, in vivo
# Procedure: (§1) Lumbar intrathecal injections--rats: Rats (250-350 gm) were prepared with chronic intrathecal catheters placed in the lumbar intrathecal space. They received intrathecal administration of 15 μl of 25% CDEX. […] At 7 days, the levels of neuropeptides substance P and calcitonin gene-related peptide (CGRP) were measured after extraction of tissue, using radioimmunoassays.
# substance P = conditions: rat, in vivo
# Procedure: as §1
compound,measurement,setting,value
2-hydroxypropyl-β-cyclodextrin [CDEX],EEG activity,[1],no effect
same,general motor behavior,[1],no effect
same,acute behavioral signs of agitation (irritation),[2],no acute behavioral signs of agitation
same,"motor function (placing, stepping and righting reflexes or ambulatory tests)",[2],no changes
same,urine staining,[2],No evidence of urine staining
same,bladder function,[3],no effect
same,heart rate,[3],no effect
same,skin twitch response,[3],no effect
same,toxicity,[3],lack of toxicity
"CS(=O)(=O)OCCCCOS(C)(=O)=O [Busulfan, busulfan]",bone marrow depression,[4],severe bone marrow depression
C[S+](C)[O-] [dimethyl sulfoxide],tissue level of CGRP,[5],significant reduction
same,tissue level of substance P,substance P,significant reduction
